Reference: ChEMBL document CHEMBL3885881, “DrugMatrix”

Organism: Rattus norvegicus
Test: DrugMatrix - Regimen: Daily Repeat
Assay type: toxicity, organism-based, Sprague-Dawley
Set-up: regimen Daily Repeat, gender Male, age 6-8 weeks
Conditions: in vivo, sc, route subcutaneous, […]; for ABSOLUTE BASOPHIL / ABSOLUTE EOSINOPHIL / ABSOLUTE LYMPHOCYTE / ABSOLUTE MONOCYTE / ABSOLUTE SEGMENTED NEUTROPHIL / BASOPHIL / EOSINOPHIL / ERYTHROCYTE COUNT / HEMATOCRIT / HEMOGLOBIN / LEUKOCYTE COUNT / LYMPHOCYTE / MEAN CORPUSCULAR HEMOGLOBIN / MEAN CORPUSCULAR HEMOGLOBIN CONCENTRATION / MEAN CORPUSCULAR VOLUME / MONOCYTE / NEUTROPHIL / NUCLEATED RED BLOOD CELLS / PLATELET COUNT: tissue Blood; for ALANINE AMINOTRANSFERASE / ALBUMIN / ALKALINE PHOSPHATASE / ASPARTATE AMINOTRANSFERASE / BLOOD UREA NITROGEN / CARBON DIOXIDE / CHLORIDE / CHOLESTEROL / CREATINE PHOSPHOKINASE / CREATININE / GLUCOSE / LACTATE DEHYDROGENASE / LIPASE / PHOSPHORUS / POTASSIUM / SODIUM / TOTAL BILIRUBIN / TOTAL PROTEIN / URIC ACID: tissue Plasma
[1] = 0 mg/kg, 72 h, dose level Control, time 3 day
[2] = 0 mg/kg, 120 h, dose level Control, time 5 day
[3] = 22 mg/kg, 72 h, dose level Low, time 3 day
[4] = 22 mg/kg, 120 h, dose level Low, time 5 day

O=C(O)c1ccccc1O [SALICYLIC ACID]
ABSOLUTE BASOPHIL [1]: 0 CELLS/uL | ABSOLUTE EOSINOPHIL [1]: 0 CELLS/uL | ABSOLUTE LYMPHOCYTE [1]: 10887 CELLS/uL | ABSOLUTE MONOCYTE [1]: 56 CELLS/uL | ABSOLUTE SEGMENTED NEUTROPHIL [1]: 1057 CELLS/uL | BASOPHIL [1]: 0% | EOSINOPHIL [1]: 0% | ERYTHROCYTE COUNT [1]: 5.31 x10E6/uL | HEMATOCRIT [1]: 33.78% | HEMOGLOBIN [1]: 13.4 G/DL | LEUKOCYTE COUNT [1]: 12 x10E3/uL | LYMPHOCYTE [1]: 91.17% | MEAN CORPUSCULAR HEMOGLOBIN [1]: 25.25 pg | MEAN CORPUSCULAR HEMOGLOBIN CONCENTRATION [1]: 39.65 G/DL | MEAN CORPUSCULAR VOLUME [1]: 63.65 fL | MONOCYTE [1]: 0.5% | NEUTROPHIL [1]: 8.33% | NUCLEATED RED BLOOD CELLS [1]: 0 /100WBC | PLATELET COUNT [1]: 1142 x10E3/uL | ALANINE AMINOTRANSFERASE [1]: 57.17 u/L | ALBUMIN [1]: 4.28 G/DL | ALKALINE PHOSPHATASE [1]: 425.83 u/L | ASPARTATE AMINOTRANSFERASE [1]: 93.83 u/L | BLOOD UREA NITROGEN [1]: 14.17 mg/dL | CARBON DIOXIDE [1]: 33.5 mmol/L | CHLORIDE [1]: 100 MEQ/L | CHOLESTEROL [1]: 70.33 mg/dL | CREATINE PHOSPHOKINASE [1]: 438.67 u/L | CREATININE [1]: 0.19 mg/dL | GLUCOSE [1]: 138.5 mg/dL | LACTATE DEHYDROGENASE [1]: 190.17 u/L | LIPASE [1]: 9.83 u/L | PHOSPHORUS [1]: 11.05 mg/dL | POTASSIUM [1]: 6.59 MEQ/L | SODIUM [1]: 143.58 MEQ/L | TOTAL BILIRUBIN [1]: 0.22 mg/dL | TOTAL PROTEIN [1]: 6.15 G/DL | URIC ACID [1]: 1.3 mg/dL | ABSOLUTE BASOPHIL [2]: 0 CELLS/uL | ABSOLUTE EOSINOPHIL [2]: 91.17 CELLS/uL | ABSOLUTE LYMPHOCYTE [2]: 11847.67 CELLS/uL | ABSOLUTE MONOCYTE [2]: 172.83 CELLS/uL | ABSOLUTE SEGMENTED NEUTROPHIL [2]: 1105 CELLS/uL | BASOPHIL [2]: 0% | EOSINOPHIL [2]: 0.67% | ERYTHROCYTE COUNT [2]: 5.35 x10E6/uL | HEMATOCRIT [2]: 33.65% | HEMOGLOBIN [2]: 13.42 G/DL | LEUKOCYTE COUNT [2]: 13.22 x10E3/uL | LYMPHOCYTE [2]: 89.83% | MEAN CORPUSCULAR HEMOGLOBIN [2]: 25.12 pg | MEAN CORPUSCULAR HEMOGLOBIN CONCENTRATION [2]: 39.9 G/DL | MEAN CORPUSCULAR VOLUME [2]: 63 fL | MONOCYTE [2]: 1.33% | NEUTROPHIL [2]: 8.17% | NUCLEATED RED BLOOD CELLS [2]: 0 /100WBC | PLATELET COUNT [2]: 1347.83 x10E3/uL | ALANINE AMINOTRANSFERASE [2]: 50 u/L | ALBUMIN [2]: 4.1 G/DL | ALKALINE PHOSPHATASE [2]: 329.17 u/L | ASPARTATE AMINOTRANSFERASE [2]: 77.17 u/L | BLOOD UREA NITROGEN [2]: 16.83 mg/dL | CARBON DIOXIDE [2]: 34.83 mmol/L | CHLORIDE [2]: 99.83 MEQ/L | CHOLESTEROL [2]: 75.67 mg/dL | CREATINE PHOSPHOKINASE [2]: 295.83 u/L | CREATININE [2]: 0.18 mg/dL | GLUCOSE [2]: 156.33 mg/dL | LACTATE DEHYDROGENASE [2]: 166.83 u/L | LIPASE [2]: 9.83 u/L | PHOSPHORUS [2]: 12.18 mg/dL | POTASSIUM [2]: 6.69 MEQ/L | SODIUM [2]: 143.97 MEQ/L | TOTAL BILIRUBIN [2]: 0.22 mg/dL | TOTAL PROTEIN [2]: 6.05 G/DL | URIC ACID [2]: 1.6 mg/dL | ABSOLUTE BASOPHIL [3]: 0 CELLS/uL | ABSOLUTE EOSINOPHIL [3]: 26.67 CELLS/uL | ABSOLUTE LYMPHOCYTE [3]: 6989.67 CELLS/uL | ABSOLUTE MONOCYTE [3]: 0 CELLS/uL | ABSOLUTE SEGMENTED NEUTROPHIL [3]: 550.33 CELLS/uL | BASOPHIL [3]: 0% | EOSINOPHIL [3]: 0.33% | ERYTHROCYTE COUNT [3]: 5.05 x10E6/uL | HEMATOCRIT [3]: 33.17% | HEMOGLOBIN [3]: 13.07 G/DL | LEUKOCYTE COUNT [3]: 7.57 x10E3/uL | LYMPHOCYTE [3]: 92.33% | MEAN CORPUSCULAR HEMOGLOBIN [3]: 25.9 pg | MEAN CORPUSCULAR HEMOGLOBIN CONCENTRATION [3]: 39.43 G/DL | MEAN CORPUSCULAR VOLUME [3]: 65.6 fL | MONOCYTE [3]: 0% | NEUTROPHIL [3]: 7.33% | NUCLEATED RED BLOOD CELLS [3]: 0 /100WBC | PLATELET COUNT [3]: 1158.33 x10E3/uL | ALANINE AMINOTRANSFERASE [3]: 58.33 u/L | ALBUMIN [3]: 4.43 G/DL | ALKALINE PHOSPHATASE [3]: 511.33 u/L | ASPARTATE AMINOTRANSFERASE [3]: 103 u/L | BLOOD UREA NITROGEN [3]: 13.33 mg/dL | CARBON DIOXIDE [3]: 32 mmol/L | CHLORIDE [3]: 102 MEQ/L | CHOLESTEROL [3]: 71 mg/dL | CREATINE PHOSPHOKINASE [3]: 208.67 u/L | CREATININE [3]: 0.19 mg/dL | GLUCOSE [3]: 141.33 mg/dL | LACTATE DEHYDROGENASE [3]: 161.67 u/L | LIPASE [3]: 10 u/L | PHOSPHORUS [3]: 12.97 mg/dL | POTASSIUM [3]: 6.87 MEQ/L | SODIUM [3]: 150.3 MEQ/L | TOTAL BILIRUBIN [3]: 0.2 mg/dL | TOTAL PROTEIN [3]: 6.27 G/DL | URIC ACID [3]: 0.83 mg/dL | ABSOLUTE BASOPHIL [4]: 0 CELLS/uL | ABSOLUTE EOSINOPHIL [4]: 207.33 CELLS/uL | ABSOLUTE LYMPHOCYTE [4]: 12679.33 CELLS/uL | ABSOLUTE MONOCYTE [4]: 80 CELLS/uL | ABSOLUTE SEGMENTED NEUTROPHIL [4]: 1400 CELLS/uL | BASOPHIL [4]: 0% | EOSINOPHIL [4]: 1.33% | ERYTHROCYTE COUNT [4]: 5.41 x10E6/uL | HEMATOCRIT [4]: 34.5% | HEMOGLOBIN [4]: 13.87 G/DL | LEUKOCYTE COUNT [4]: 14.37 x10E3/uL | LYMPHOCYTE [4]: 88% | MEAN CORPUSCULAR HEMOGLOBIN [4]: 25.6 pg | MEAN CORPUSCULAR HEMOGLOBIN CONCENTRATION [4]: 40.23 G/DL | MEAN CORPUSCULAR VOLUME [4]: 63.73 fL | MONOCYTE [4]: 0.67% | NEUTROPHIL [4]: 10% | NUCLEATED RED BLOOD CELLS [4]: 0 /100WBC | PLATELET COUNT [4]: 1310 x10E3/uL | ALANINE AMINOTRANSFERASE [4]: 52.67 u/L | ALBUMIN [4]: 4.17 G/DL | ALKALINE PHOSPHATASE [4]: 362.33 u/L | ASPARTATE AMINOTRANSFERASE [4]: 87.67 u/L | BLOOD UREA NITROGEN [4]: 16.33 mg/dL | CARBON DIOXIDE [4]: 30.33 mmol/L | CHLORIDE [4]: 105.67 MEQ/L | CHOLESTEROL [4]: 78.33 mg/dL | CREATINE PHOSPHOKINASE [4]: 263.33 u/L | CREATININE [4]: 0.18 mg/dL | GLUCOSE [4]: 153.33 mg/dL | LACTATE DEHYDROGENASE [4]: 272.67 u/L | LIPASE [4]: 9 u/L | PHOSPHORUS [4]: 13.37 mg/dL | POTASSIUM [4]: 7.11 MEQ/L | SODIUM [4]: 149.4 MEQ/L | TOTAL BILIRUBIN [4]: 0.2 mg/dL | TOTAL PROTEIN [4]: 6.07 G/DL | URIC ACID [4]: 1.5 mg/dL
